Numbered stars: 1 amine (or outer) side, 2 acyl side, 3 side chain; on linkers, the order of the positions; unused ones are H or OH. Bridge positions count the residues as written; N and C are the ends. Square brackets hold non-standard residues; d marks the D form. Peptide text beside a SMILES is read from it. N(3-imidazol-1-ylpropyl)Gly = O=C(O)CNCCCn1ccnc1; Phe(4-F) = N[C@@H](Cc1ccc(F)cc1)C(=O)O; X2 = CN1CCN(CCCN(CC(=O)[*:2])[*:1])CC1; 2Nal = N[C@@H](Cc1ccc2ccccc2c1)C(=O)O; 4Pal = N[C@@H](Cc1ccncc1)C(=O)O; Cit = NC(=O)NCCC[C@H](N)C(=O)O; NMeK = CN[C@@H](CCCCN)C(=O)O; Dab = NCC[C@H](N)C(=O)O
How the values were obtained:
[1] = test system: human red blood cells (hRBC); assay: Hemolysis; assay type: cell-based
In short: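 Percent lysis taken as OD540 of peptide-treated sample over OD540 of the water/0.1% Triton X-100 full-lysis control, with PBS giving 0%. Peptides at 100 μM exposed to PBS-washed human RBCs (20% v/v) for 1 hour at 37° C. before centrifugation and 20-fold dilution of supernatant.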

[2] = biological target: CXCR4 (Homo sapiens, UniProt P61073); assay: Ca2+-assay method 2 (Flexstation, SDF-1 induced calcium mobilization); assay type: cell-based; design: expressed in transfected cells; host or cells: mouse pre-B cell line 300-19; settings: method 2 (Ex. 54-160), mouse pre-B cell line 300-19 with human CXCR4, 10 nM SDF-1; read-out: IC50 (nM) Ca^2+ assay
Sequence of CXCR4 (P61073 whole entry): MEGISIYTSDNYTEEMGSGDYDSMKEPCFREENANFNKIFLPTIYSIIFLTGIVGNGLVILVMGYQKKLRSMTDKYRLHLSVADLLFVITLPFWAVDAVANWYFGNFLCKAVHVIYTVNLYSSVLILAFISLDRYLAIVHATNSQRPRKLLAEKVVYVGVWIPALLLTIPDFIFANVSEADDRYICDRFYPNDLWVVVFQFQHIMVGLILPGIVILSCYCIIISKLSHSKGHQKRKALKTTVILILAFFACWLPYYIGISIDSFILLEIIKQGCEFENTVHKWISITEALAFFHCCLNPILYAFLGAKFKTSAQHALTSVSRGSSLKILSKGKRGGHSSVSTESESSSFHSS

[3] = in vitro; settings: human
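For GI50 in this document: MTT reduction read as absorbance at 595 nm, blank-corrected and expressed as percent growth relative to the time-zero cell reading, triplicate wells per concentration.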

SMILES | Hemolysis at 100 μM [1] [%] | IC50 [2] [nM] | GI50 at 48 h [3] [nM]
C[C@@H](O)[C@@H]1NC(=O)[C@H](CCCNC(=N)N)NC(=O)[C@H](Cc2ccc(O)cc2)NC(=O)[C@@H]2CCCN2C(=O)[C@H]2CCCN2C(=O)[C@H](CCCCN)NC(=O)[C@H](CCC(N)=O)NC(=O)[C@H](Cc2ccc(O)cc2)NC(=O)[C@@H]2CSSC[C@H](NC1=O)C(=O)N[C@@H](CCCNC(=N)N)C(=O)NCC(=O)N1CCC[C@@H]1C(=O)N[C@@H](Cc1ccncc1)C(=O)N[C@@H](CCCNC(=N)N)C(=O)N[C@@H](Cc1c[nH]c3ccccc13)C(=O)N2 [Ex. 118] (cyclo(YRTCRG[dP][4Pal]RWCYQK[dP]P); disulfide 4-11) | 0 | 7.6 | 52000
C[C@@H](O)[C@@H]1NC(=O)[C@H](Cc2ccncc2)NC(=O)[C@H](Cc2ccc(O)cc2)NC(=O)[C@@H]2CCCN2C(=O)[C@H]2CCCN2C(=O)[C@H](CCCCN)NC(=O)[C@H](CCC(N)=O)NC(=O)[C@H](Cc2ccc(O)cc2)NC(=O)[C@@H]2CSSC[C@H](NC1=O)C(=O)N[C@@H](CCCNC(=N)N)C(=O)NCC(=O)N1CCC[C@@H]1C(=O)N[C@@H](CCCNC(=N)N)C(=O)N[C@@H](CCCNC(=N)N)C(=O)N[C@@H](Cc1c[nH]c3ccccc13)C(=O)N2 [Ex. 119] (cyclo(Y[4Pal]TCRG[dP]RRWCYQK[dP]P); disulfide 4-11) | 0 | 9.4 | 63000
N=C(N)NCCC[C@@H]1NC(=O)[C@@H]2CSSC[C@H](NC(=O)[C@H](Cc3c[nH]c4ccccc34)NC(=O)[C@H](CCCNC(=N)N)NC(=O)[C@H](CCCNC(=N)N)NC(=O)[C@H]3CCCN3C(=O)CNC1=O)C(=O)N[C@@H](Cc1ccc(O)cc1)C(=O)N[C@@H](CCCNC(N)=O)C(=O)N[C@@H](CCC(N)=O)C(=O)N1CCC[C@@H]1C(=O)N1CCC[C@H]1C(=O)N[C@@H](Cc1ccc(O)cc1)C(=O)N[C@@H](CCCNC(=N)N)C(=O)N[C@@H](CCCNC(N)=O)C(=O)N2 [Ex. 121] (cyclo(YR[Cit]CRG[dP]RRWCY[Cit]Q[dP]P); disulfide 4-11) | 0 | 6.5 | 79000
N=C(N)NCCC[C@@H]1NC(=O)[C@@H]2CSSC[C@H](NC(=O)[C@H](Cc3c[nH]c4ccccc34)NC(=O)[C@H](CCCNC(=N)N)NC(=O)[C@H](Cc3ccc(F)cc3)NC(=O)[C@H]3CCCN3C(=O)CNC1=O)C(=O)N[C@@H](Cc1ccc(O)cc1)C(=O)N[C@@H](CCCNC(N)=O)C(=O)N[C@@H](CCCCN)C(=O)N1CCC[C@@H]1C(=O)N1CCC[C@H]1C(=O)N[C@@H](Cc1ccc(O)cc1)C(=O)N[C@@H](CCCNC(=N)N)C(=O)N[C@@H](CCCNC(N)=O)C(=O)N2 [Ex. 122] (cyclo(YR[Cit]CRG[dP][Phe(4-F)]RWCY[Cit]K[dP]P); disulfide 4-11) | 0 | 8.8 | 60000
N=C(N)NCCC[C@@H]1NC(=O)[C@@H]2CSSC[C@H](NC(=O)[C@H](Cc3c[nH]c4ccccc34)NC(=O)[C@H](CCCNC(=N)N)NC(=O)[C@H](CCCNC(=N)N)NC(=O)[C@H]3CCCN3C(=O)CNC1=O)C(=O)N[C@@H](Cc1ccc(O)cc1)C(=O)N[C@@H](CCCNC(N)=O)C(=O)N[C@@H](CCCCN)C(=O)N1CCC[C@@H]1C(=O)N1CCC[C@H]1C(=O)N[C@@H](Cc1ccc(O)cc1)C(=O)N[C@@H](CCCNC(=N)N)C(=O)N[C@@H](CCCNC(N)=O)C(=O)N2 [Ex. 123] (cyclo(YR[Cit]CRG[dP]RRWCY[Cit]K[dP]P); disulfide 4-11) | 0 | 10 | 80000
N=C(N)NCCC[C@@H]1NC(=O)CN(CCCn2ccnc2)C(=O)[C@H]2CCCN2C(=O)CNC(=O)[C@H](CCCNC(=N)N)NC(=O)[C@@H]2CSSC[C@H](NC(=O)[C@H](Cc3ccc4ccccc4c3)NC1=O)C(=O)N[C@@H](Cc1ccc(O)cc1)C(=O)N[C@@H](CCCNC(N)=O)C(=O)N[C@@H](CCCCN)C(=O)N1CCC[C@@H]1C(=O)N1CCC[C@H]1C(=O)N[C@@H](Cc1ccc(O)cc1)C(=O)N[C@@H](CCCNC(=N)N)C(=O)N[C@@H](CCCNC(N)=O)C(=O)N2 [Ex. 125] (cyclo(YR[Cit]CRG[dP][N(3-imidazol-1-ylpropyl)Gly]R[2Nal]CY[Cit]K[dP]P); disulfide 4-11) | 0 | 330 | > 100000
CN1CCN(CCCN2CC(=O)N[C@@H](Cc3ccc4ccccc4c3)C(=O)N[C@H]3CSSC[C@H](NC(=O)[C@H](CCCNC(N)=O)NC(=O)[C@H](CCCNC(=N)N)NC(=O)[C@H](Cc4ccc(O)cc4)NC(=O)[C@@H]4CCCN4C(=O)[C@H]4CCCN4C(=O)[C@H](CCCCN)NC(=O)[C@H](CCCNC(N)=O)NC(=O)[C@H](Cc4ccc(O)cc4)NC3=O)C(=O)N[C@@H](CCCNC(=N)N)C(=O)NCC(=O)N3CCC[C@@H]3C(=O)N[C@@H](CCCNC(=N)N)C2=O)CC1 [Ex. 126] (cyclo(YR[Cit]CRG[dP]R[X2][2Nal]CY[Cit]K[dP]P); disulfide 4-11) | 0 | 19.5 | 85000
CN1C(=O)[C@H](CCCNC(N)=O)NC(=O)[C@H](Cc2ccc(O)cc2)NC(=O)[C@@H]2CSSC[C@H](NC(=O)[C@H](CCCNC(N)=O)NC(=O)[C@H](CCCNC(=N)N)NC(=O)[C@H](Cc3ccc(O)cc3)NC(=O)[C@@H]3CCCN3C(=O)[C@H]3CCCN3C(=O)[C@@H]1CCCCN)C(=O)N[C@@H](CCCNC(=N)N)C(=O)NCC(=O)N1CCC[C@@H]1C(=O)N[C@@H](CCCNC(=N)N)C(=O)N[C@@H](CCCNC(=N)N)C(=O)N[C@@H](Cc1ccc3ccccc3c1)C(=O)N2 [Ex. 127] (cyclo(YR[Cit]CRG[dP]RR[2Nal]CY[Cit][NMeK][dP]P); disulfide 4-11) | 0 | 52.2 | 62000
CN1CC(=O)N[C@@H](CCCCN)C(=O)N2CCC[C@@H]2C(=O)N2CCC[C@H]2C(=O)N[C@@H](Cc2ccc(O)cc2)C(=O)N[C@@H](CCCNC(=N)N)C(=O)N[C@@H](CCCNC(N)=O)C(=O)N[C@H]2CSSC[C@H](NC(=O)[C@H](Cc3ccc4ccccc4c3)NC(=O)[C@H](CCCNC(=N)N)NC(=O)[C@H](CCCNC(=N)N)NC(=O)[C@H]3CCCN3C(=O)CNC(=O)[C@H](CCCNC(=N)N)NC2=O)C(=O)N[C@@H](Cc2ccc(O)cc2)C1=O [Ex. 129] | 0 | 10.9 | 23000
N=C(N)NCCC[C@@H]1NC(=O)[C@@H]2CSSC[C@H](NC(=O)[C@H](Cc3ccc4ccccc4c3)NC(=O)[C@H](CCCNC(=N)N)NC(=O)[C@H](CCCNC(=N)N)NC(=O)[C@H]3CCCN3C(=O)CNC1=O)C(=O)N[C@@H](Cc1ccc(O)cc1)C(=O)N[C@@H](CCCNC(N)=O)C(=O)N[C@@H](CCCCN)C(=O)N1CCC[C@@H]1C(=O)N1CCC[C@H]1C(=O)N[C@@H](Cc1ccc(O)cc1)C(=O)N[C@@H](CCCNC(=N)N)C(=O)N[C@@H](CCC(N)=O)C(=O)N2 [Ex. 130] (cyclo(YRQCRG[dP]RR[2Nal]CY[Cit]K[dP]P); disulfide 4-11) | 0 | 4.1 | 62000
C[C@@H](O)[C@@H]1NC(=O)[C@H](CCCNC(=N)N)NC(=O)[C@H](Cc2ccc(O)cc2)NC(=O)[C@@H]2CCCN2C(=O)[C@H]2CCCN2C(=O)[C@H](CCCCN)NC(=O)[C@H](CCCNC(N)=O)NC(=O)[C@H](Cc2ccc(O)cc2)NC(=O)[C@@H]2CSSC[C@H](NC1=O)C(=O)N[C@@H](CCCNC(=N)N)C(=O)NCC(=O)N1CCC[C@@H]1C(=O)N[C@@H](CCCNC(=N)N)C(=O)N[C@@H](CCCNC(=N)N)C(=O)N[C@@H](Cc1ccc3ccccc3c1)C(=O)N2 [Ex. 131] (cyclo(YRTCRG[dP]RR[2Nal]CY[Cit]K[dP]P); disulfide 4-11) | 0 | 2.4 | 53000
C[C@@H](O)[C@@H]1NC(=O)[C@H](Cc2ccc(O)cc2)NC(=O)[C@@H]2CSSC[C@H](NC(=O)[C@H](CCCNC(N)=O)NC(=O)[C@H](CCCNC(=N)N)NC(=O)[C@H](Cc3ccc(O)cc3)NC(=O)[C@@H]3CCCN3C(=O)[C@H]3CCCN3C(=O)[C@H](CCCCN)NC1=O)C(=O)N[C@@H](CCCNC(=N)N)C(=O)NCC(=O)N1CCC[C@@H]1C(=O)N[C@@H](CCCNC(=N)N)C(=O)N[C@@H](CCCNC(=N)N)C(=O)N[C@@H](Cc1ccc3ccccc3c1)C(=O)N2 [Ex. 133] (cyclo(YR[Cit]CRG[dP]RR[2Nal]CYTK[dP]P); disulfide 4-11) | 0.1 | 5.3 | 45000
N=C(N)NCCC[C@@H]1NC(=O)[C@@H]2CSSC[C@H](NC(=O)[C@H](Cc3ccc4ccccc4c3)NC(=O)[C@H](CCCNC(=N)N)NC(=O)[C@H](CCN)NC(=O)[C@H]3CCCN3C(=O)CNC1=O)C(=O)N[C@@H](Cc1ccc(O)cc1)C(=O)N[C@@H](CCCNC(N)=O)C(=O)N[C@@H](CCCCN)C(=O)N1CCC[C@@H]1C(=O)N1CCC[C@H]1C(=O)N[C@@H](Cc1ccc(O)cc1)C(=O)N[C@@H](CCCNC(=N)N)C(=O)N[C@@H](CCCNC(N)=O)C(=O)N2 [Ex. 134] (cyclo(YR[Cit]CRG[dP][Dab]R[2Nal]CY[Cit]K[dP]P); disulfide 4-11) | 0 | 1.7 | 21000
N=C(N)NCCC[C@@H]1NC(=O)[C@@H]2CSSC[C@H](NC(=O)[C@H](Cc3c[nH]c4ccccc34)NC(=O)[C@H](CCCNC(=N)N)NC(=O)[C@H](CCCNC(N)=O)NC(=O)[C@H]3CCCN3C(=O)CNC1=O)C(=O)N[C@@H](Cc1ccc(O)cc1)C(=O)N[C@@H](CCCNC(N)=O)C(=O)N[C@@H](CCCCN)C(=O)N1CCC[C@@H]1C(=O)N1CCC[C@H]1C(=O)N[C@@H](Cc1ccc(O)cc1)C(=O)N[C@@H](CCCNC(=N)N)C(=O)N[C@@H](CCCNC(N)=O)C(=O)N2 [Ex. 136] (cyclo(YR[Cit]CRG[dP][Cit]RWCY[Cit]K[dP]P); disulfide 4-11) | 0 | 4.1 | > 100000
